# Test results as given in patent US20040106588A1 (priority 2002, published 2004).
# Like-named read-outs stand apart in the source and are kept apart here.
# Experiments:
# colon adenocarcinomas = conditions: studies referred to by Reddy et al; cited from earlier work
# II-4 cells in SCID mice = test: Third study: topical alpha-DFMO, triamcinolone or the combination on II-4 tumor volume in SCID mice; assay type: in vivo, mouse; conditions: single agent, topical daily from 24 hours after implantation; alpha-DFMO 5% or 10%, triamcinolone 0.05% or 0.1%; FIG. 6
# Procedure: The control groups received either no treatment (n=4), or the ointment base (hydrophilic ointment, U.S.P. alone (n=4), or the ointment base (hydrophilic ointment, U.S.P. alone (n=4). Treatments were given daily to the tumor-bearing […] skin continuously beginning 24 hours after tumor implantation. Palpable tumors were measured bi-dimensionally using calipers, three times per week, until tumor sizes approximated 1,500 mm^3 (about 1.5 g). The mice were then euthanized.
# [1] = tested on: II-4 human squamous cell skin cancer cells; test: In vitro sulforhodamine B surviving fraction study of alpha-DFMO, triamcinolone and diclofenac; assay type: cell-based; conditions: single drug, Day 1 to Day 7
# Procedure: This study was directed to II-4 human squamous cell skin cancer cells.
# The cell culture was maintained as a monolayer culture. The cells were plated in 96 well microtiter plates on Day 0 of the study. Some of such wells were used as control wells, so no drugs were added thereto. The aforementioned combination of drugs was added to the microtiter test wells on Day 1. On Day 7, the plates were fixed with cold 10% trichloroacetic acid, and then washed four times with distilled water. Each plate was then stained with 0.4% sulforhodamine B. Excess stain was then removed by washing the plate four times with 1% acetic acid. The stained dye is then solubilized with 50 mM Tris. The stained plates were then “read”, i.e., measured for optical density, on an automatic plate reader at 540 nm. A lower optical density corresponds to a smaller volume of cancerous cells, and a higher optical density corresponds to a larger volume of cancerous cells. A surviving fraction factor fs is then computed for the treated well plates by taking the mean optical density of the treated well plates and dividing by the mean optical density of the control well plates.
# As explained in the aforementioned article by Alberts, et al., a mathematically-derived expected fraction factor (fs*) can be computed for each three-drug combination by multiplying together the individual fraction factors for the three individual drugs. A ratio can then be computed for the actual experimentally-determined fraction factor fs divided by the expected fraction factor fs*, and this ratio is presented in the rightmost column of the table in FIG. 7. […] The lower the ratio, the more synergistic is the combination.
# [2] = Skin reactions after topical application in studies treating actinic keratoses; assay type: in vivo, human; conditions: alpha-DFMO alone, without topical steroid or NSAID, past studies
# Text: The new combination also provides a new method for treating vulvar neoplasia which is much more likely to be tolerated than currently available methods. […] Though topical application to the inside of the mouth may be more difficult, it is preferably achieved by providing a thick gel or cream, and applying to the affected area, preferably during the middle of the night when the mouth is dry.
# [3] = Systemic uptake after topical alpha-DFMO, animal studies; assay type: in vivo; conditions: topical application
# Text: The generic name for alpha-DFMO is eflomithine, which is a racemic mixture of two enantiomers. […] Nonetheless, it may be possible to obtain the advantages of the present invention as described above using only one or the other of the two enantiomers that form the racemic mixture of alpha-DFMO; accordingly, the use of the term “alpha-DFMO” herein should be understood, for purposes of the present patent application, to include both the racemic mixture of the two enantiomers that normally make up alpha-DFMO, as well as each of the two enantiomers that collectively make up the racemic mixture of alpha-DFMO.
# [4] = tested on: cervical intraepithelial neoplasia level III; conditions: cited from earlier work
# UVB-induced skin cancers [5] = conditions: p.o.; 38% in placebo treated controls; cited from earlier work
# UVB-induced skin cancers [6] = conditions: topical, acetone vehicle; cited from earlier work
# [7] = tested on: human colon tumor xenograft (T6) cells; conditions: in vitro; cited from earlier work
# [8] = tested on: human lung adenocarcinoma cell line (A549); conditions: A549, in vitro; cited from earlier work
# [9] = tested on: polyamine de novo synthesis and DNA polymerase; conditions: colon and small intestine; cited from earlier work
# [10] = tested on: Human Cervical Epithelial and Cancerous Cell Lines; conditions: in vitro, dose dependent and time dependent, partially through inducing apoptosis; cited from earlier work
# actinic keratoses [11] = conditions: topical hydrophilic cream, human subjects; cited from earlier work
# actinic keratoses [12] = conditions: 0.5% cream added to topical fluorouracil; cited from earlier work
# [13] = topical, cited from earlier work
# [14] = 0.06 to 1.0 g/m^2 per day for 30 days
smiles,measurement,setting,value
CC(C)Cc1ccc(C(C)C(=O)O)cc1 (centres unmarked) [ibuprofen],effect on colon adenocarcinomas,colon adenocarcinomas,inhibited colon adenocarcinomas
Cc1c(-c2cnccn2)ssc1=S [oltipraz],effect on colon adenocarcinomas,colon adenocarcinomas,inhibited colon adenocarcinomas
CC(=O)Oc1ccccc1C(=O)O [aspirin],effect on colon adenocarcinomas,colon adenocarcinomas,inhibited colon adenocarcinomas
CC1=C(CC(=O)O)c2cc(F)ccc2/C1=C\c1ccc([S+](C)[O-])cc1 (centres unmarked) [sulindac],effect on colon adenocarcinomas,colon adenocarcinomas,inhibited colon adenocarcinomas
"NCCC[C@](N)(C(=O)O)C(F)F (racemic) [alpha-DFMO, Alpha-Difluoromethylornithine]",rate of tumor growth (tumor volume over fifty days),II-4 cells in SCID mice,decreases the rate of tumor growth
same,surviving fraction factor fs,[1]; 50 μM,0.749
same,surviving fraction factor fs,[1]; 75 μM,0.807
same,incidence of skin reactions,[2],~20%
same,systemic uptake,[3],negligible systemic uptake
same,overall response rate,"[4]; 0.06 to 1.0 g/m^2 per day for 30 days, 30 women",50%
same,patients experiencing a complete response,[4]; [14],five out of thirty
same,patients experiencing a partial response (reduction to levels I or II),[4]; [14],ten out of thirty
same,toxicity,[4]; [14],minimal toxicity
same,dose down to which serum polyamine modulation was significant,[4]; serum,0.125 g/m^2 per day
same,dose level down to which tissue polyamine modulation was significant,[4]; tissue,0.5 g/m^2 per day
same,UVB-induced skin cancers in treated animals,UVB-induced skin cancers [5],9%
same,UVB-induced skin cancers,UVB-induced skin cancers [6],dramatically reduced
same,growth inhibition,[7],dose-dependent growth-inhibitory effect
same,growth inhibition,[8],dose-dependent growth-inhibitory effect
same,DMH-induced activation of polyamine de novo synthesis and DNA polymerase,[9],completely prevented
same,growth of cervical pre-cancerous and cancerous cells,[10],inhibits the growth
same,number of AKs on the arms,actinic keratoses [11],reduced the number of AKs
same,effect on colon adenocarcinomas,colon adenocarcinomas,inhibited colon adenocarcinomas
C=CCSSCC=C [diallyl disulfide],effect on colon adenocarcinomas,colon adenocarcinomas,inhibited colon adenocarcinomas
O=C(O)Cc1ccccc1Nc1c(Cl)cccc1Cl [diclofenac],surviving fraction factor fs,[1]; 150 μM,0.703
same,surviving fraction factor fs,[1]; 175 μM,0.518
"CC1(C)O[C@@H]2C[C@H]3[C@@H]4CCC5=CC(=O)C=C[C@]5(C)[C@@]4(F)[C@@H](O)C[C@]3(C)[C@]2(C(=O)CO)O1 [triamcinolone, triamcinolone acetonide]",rate of tumor growth (tumor volume over fifty days),II-4 cells in SCID mice,decreases the rate of tumor growth
same,surviving fraction factor fs,[1]; 100 μM,0.999
same,surviving fraction factor fs,[1]; 150 μM,0.999
same,surviving fraction factor fs,[1]; 200 μM,0.872
same,effect on inflammatory response to fluorouracil,actinic keratoses [12],reduce inflammatory response
same,effect on the effectiveness of fluorouracil,actinic keratoses [12],did not alter the effectiveness of the fluorouracil
"O=c1[nH]cc(F)c(=O)[nH]1 [5-FU, 5-fluorouracil]",tolerability,[13]; in the vagina,relatively well tolerated
same,tolerability,[13]; on the vulva,extremely poorly tolerated
CN1C(C(=O)Nc2ccccn2)=C(O)c2ccccc2S1(=O)=O [piroxicam],effect on colon adenocarcinomas,colon adenocarcinomas,inhibited colon adenocarcinomas
